The subject of this test is NL4-3 strain of HIV-1. Nature of the test: HIV replication inhibition: CellTiter-Glo cyto-protection assay in MT4 cells infected with NL4-3 virus. As to conditions: Human immunodeficiency virus 1, NL43, 120 h, concentration giving 50% cyto-protection, 5 days incubation, CellTiter-Glo viability readout. It counts as cell-based. On the procedure: The antiviral activity, particularly against HIV, of compounds according to the invention is evaluated by the protocol described below.
Preparation of Virus stock of the NL4-3 strain of HIV-1 (Adachi et al, J Virol, 1986, 59(2):284-91).
The virus was prepared as described in Lopez et al (Lopez et al, Proc Natl Acad Sci USA., 2006, 103(40):14947-52, by transfecting 2×10^6 293 T cells (CRL-1573, ATCC) with following modifications: 6 μg of NL4-3 proviral DNA molecular clone were mixed with Fugene 6 transfection reagent from Roche, and used according to manufacturer's instructions. Forty eight hours later, transfected cell supernatants were harvested, filtered through 0.45-μm-pore-size filters, quantified for HIV-1 p24 antigen by using a Innotest HIV antigen mAb assay (Ingen) according to manufacturer's instructions, and used in infection experiments.
Serial dilutions of compounds to be tested were prepared in complete RPMI medium from 10 mM DMSO stock solutions, and distributed in a volume of 20 μl in 96 well Falcon 353072 Microtest™ tissue culture plate, in order to get 0.5% DMSO final concentration in each well, after the addition of infected cells. Control wells contained also 0.5% DMSO final concentration but no compound.
MT4 cells (from the NIH AIDS Research and Reference Reagent Program) in RPMI complete medium were counted (10×10^6 cells per well in Falcon 353047 Multiwell™ 24 well) and infected for 2 hours at 37°, at a multiplicity of infection (moi) of 0.0001-0.00001. Cells were then centrifuged 3 min at 3000 rpm, and washed two times in 1 ml PBS to remove viruses that have not entered in cells. Infected cells were resuspended in complete RPMI at 1.25×10^6 cells/ml, and 80 μl of infected cells were distributed in each well containing compounds to be tested or control wells. The plates were then incubated at 37° for 5 days.
Assay used to measure the inhibition of HIV replication by the compounds (according to Gregg S. Jones et al., Antimicrobial Agents and Chemotherapy, 2009, 53 (3): 1194-1203).
After 5 days of incubation, 50 μl of CellTiter-Glo reagent (Promega Biosciences, Inc., Madison Wis., USA) were added to each well. Cell lysis was carried out at room temperature during 10 min, 150 μl of lysates were transferred in Packard Optiplate 96 well, and luminescence was read on a Fluoroskan (Thermo Scientific).
In general terms: ATP-based viability assays read luminescence as a measure of living cells.

EC50 data for 10 molecules are collected here from patent US9604900B2, “Inhibitors of viral replication, their process of preparation and their therapeutical uses” (LABORATOIRE BIODIM, priority 2011, dated 2017).

For orientation: EC50 means the concentration that produces a half-maximal response. The low end stands for an effect from little substance, the high end for a need for much substance.

SMILES strings stand for the structures.

In the case of `Cc1cccc(C(OC(C)(C)C)C(=O)O)c1-c1ccc2c(c1)CCCO2` (stereo not shown) [Example 11, 2-(tert-butoxy)-2-[2-(3,4-dihydro-2H-1-benzopyran-6-yl)-3-methylphenyl] acetic acid], the EC50 worked out at 48 µM.

For the molecule `CC(C)(C)OC(C(=O)O)c1c(-c2ccc3c(c2)CCCO3)ccc2ncccc12` (stereo not shown) [Example 20, 2-(tert-butoxy)-2-[6-(3,4-dihydro-2H-1-benzopyran-6-yl)quinolin-5-yl]acetic acid], the response was half-maximal at 3.8 µM (EC50).

In the case of `CC(C)(C)OC(C(=O)O)c1cccc(C(F)(F)F)c1-c1ccc2c(c1)CCCO2` (stereo not shown) [Example 21, 2-(tert-butoxy)-2-[2-(3,4-dihydro-2H-1-benzopyran-6-yl)-3-trifluoromethylphenyl]acetic acid], the EC50 worked out at 9.7 µM.

On to `Cc1cccc(-c2ccc3c(c2)CCCO3)c1C(OC(C)(C)C)C(=O)O` (stereo not shown) [Example 22, 2-(tert-butoxy)-2-[2-(3,4-dihydro-2H-1-benzopyran-6-yl)-6-methylphenyl]acetic acid], for which the response was half-maximal at 26 µM (EC50).

`Cc1ccc(C)c(C(OC(C)(C)C)C(=O)O)c1-c1ccc2c(c1)CCCO2` (stereo not shown) [Example 27, 2-(tert-butoxy)-2-[2-(3,4-dihydro-2H-1-benzopyran-6-yl)-3,6-dimethylphenyl]acetic acid] yielded an EC50 of 1.6 µM.

`CC(C)(C)OC(C(=O)O)c1ccc(-c2cccc(-c3cccnc3)c2)cc1-c1ccc2c(c1)CCCO2` (stereo not shown) [Example 30, methyl 2-(tert-butoxy)-2-[2-(3,4-dihydro-2H-1-benzopyran-6-yl)-4-[3-(pyridin-3-yl)phenyl]phenyl]acetic acid] yielded an EC50 of 4.2 µM.

In turn, `CC(C)(C)OC(C(=O)O)c1c(-c2ccc3c(c2)CCCO3)cccc1C(F)(F)F` (stereo not shown) [Example 33, 2-(tert-butoxy)-2-[2-(3,4-dihydro-2H-1-benzopyran-6-yl)-6-(trifluoromethyl)phenyl]acetic acid] yielded an EC50 of 25 µM.

Take `CC(C)(C)OC(C(=O)O)c1c(C(F)(F)F)ccc(F)c1-c1ccc2c(c1)CCCO2` (stereo not shown) [Example 34, 2-(tert-butoxy)-2-[2-(3,4-dihydro-2H-1-benzopyran-6-yl)-3-fluoro-6-(trifluoromethyl)phenyl]acetic acid]: the EC50 stood at 14 µM.

Molecule `CC(C)(C)OC(C(=O)O)c1c(C(F)(F)F)ccc(OCc2ccccc2)c1-c1ccc2c(c1)CCCO2` (stereo not shown) [Example 35, 2-[3-(benzyloxy)-2-(3,4-dihydro-2H-1-benzopyran-6-yl)-6-(trifluoromethyl)phenyl]-2-(tert-butoxy)acetic acid] came in with an EC50 of 3.2 µM.

In turn, `CC1(C)CC=C(c2cccc(C(F)(F)F)c2C(OC(C)(C)C)C(=O)O)CC1` (stereo not shown) [Example 36, 2-(tert-butoxy)-2-[2-(4,4-dimethylcyclohex-1-en-1-yl)-6-(trifluoromethyl)phenyl]acetic acid] registered a 50% effective concentration (EC50) of 4.5 µM.
